Where “and” joins values, the source holds several entries; their conditions need not be identical. Equal values may be shown once. Read-outs that look alike come from different tables or passages of the source.
How the values were obtained:
[1] = test system: C. glabrata strains expressing WT and mutant Bdf1; test: Growth inhibition in liquid media, C. glabrata lab strains
Method: Growth on Liquid Media with C. glabrata Lab Strains: Cells were grown at 30 °C in SC+M+C‐U medium (SC medium with 5 mM methionine, 0.25 mM cysteine, without uracil) to an OD600 of 0.5–0.8. […] Plates were incubated at 30 °C and OD600 was measured using a Multiskan FC Microplate Photometer (Thermo Fisher).

[2] = test system: Bmh1/Bmh2; test: NanoBiT assay, control pair; type: cell-based, S. cerevisiae; design: Normalized nanoBiT signal: unit of the concentration uncertain; settings: for Normalized nanoBiT signal: Bmh1-LgBiT, Bmh2-SmBiT, Fig 4C
Method: (§1) Yeast strains were distributed in 96‐well microplates containing SC(MSG)‐U medium (SC‐U medium with 0.1% monosodium glutamate instead of ammonium sulfate as a nitrogen source) and grown at 30 °C. 40 µL of exponentially growing cells were transferred in white 96‐well half‐area microplates (ProxiPlate Plus, Greiner Bio‐One) previously filled with 40 µL per well of SC(MSG) containing 100 µM furimazine. The microplates were then incubated for 10 min in the dark before the luminescence signals were recorded using a microplate reader (Ensight, PerkinElmer). Luminescence measurements were performed for 1 s per well at a distance of 0.1 mm between the plate and the detector. The luminescence values were normalized with the optical density (OD600) of the corresponding cultures. For NanoBiT assays with BET inhibitors, yeast cultures were grown overnight at 30 °C in SC(MSG) medium in the presence of serial dilutions of 24c and I‐BET726. Overnight cultures were diluted 5 fold in SC(MSG) and incubated for 1 h before luminescence was recorded as previously indicated. Luminescence values for each condition were normalized using the average of the luminescence recorded for the Bdf1/Swc4 and Bmh1/Bmh2 controls.

[3] = target: T1, Bdf1‐SmBiT/H2A.Z‐LgBiT pair (Saccharomyces cerevisiae, UniProt P35817); test: NanoBiT assay; type: cell-based, S. cerevisiae; design: remaining activity: dose or concentration left out as unconfirmed
T1 construct: expressed in transfected cells; host or cells: S. cerevisiae (H2A.Z-LgBiT strain)
T1 sequence (P35817 whole entry): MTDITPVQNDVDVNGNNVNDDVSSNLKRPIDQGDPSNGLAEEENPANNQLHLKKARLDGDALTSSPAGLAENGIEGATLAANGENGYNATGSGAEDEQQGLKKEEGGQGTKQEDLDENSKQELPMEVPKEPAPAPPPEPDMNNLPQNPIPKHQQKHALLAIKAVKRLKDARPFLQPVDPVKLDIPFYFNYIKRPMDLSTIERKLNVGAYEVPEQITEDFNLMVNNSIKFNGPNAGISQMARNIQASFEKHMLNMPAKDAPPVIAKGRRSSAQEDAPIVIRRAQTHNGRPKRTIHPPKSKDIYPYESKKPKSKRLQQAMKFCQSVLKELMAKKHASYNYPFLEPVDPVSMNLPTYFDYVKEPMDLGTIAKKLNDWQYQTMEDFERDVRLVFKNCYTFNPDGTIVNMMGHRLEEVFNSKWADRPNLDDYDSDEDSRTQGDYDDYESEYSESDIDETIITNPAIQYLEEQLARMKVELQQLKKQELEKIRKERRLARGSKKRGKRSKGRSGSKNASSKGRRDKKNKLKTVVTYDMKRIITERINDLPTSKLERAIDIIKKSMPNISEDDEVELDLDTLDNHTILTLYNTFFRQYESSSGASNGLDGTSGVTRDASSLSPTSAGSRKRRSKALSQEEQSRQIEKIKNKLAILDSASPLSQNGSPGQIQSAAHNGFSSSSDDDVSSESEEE
Method: as §1

[4] = target: CgBdf1 BD1 (Candida glabrata, UniProt Q6FWV7); test: HTRF assay, inhibition of H4ac4 peptide binding; design: species or system C. glabrata; settings: for %HTRF Signal Cg Bdf1 BD1: 240 min
Sequence of CgBdf1 BD1 (Q6FWV7 entry or part of it): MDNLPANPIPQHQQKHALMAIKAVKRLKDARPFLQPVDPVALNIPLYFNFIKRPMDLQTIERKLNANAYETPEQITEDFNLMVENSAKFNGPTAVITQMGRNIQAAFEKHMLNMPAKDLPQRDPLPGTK

Compound: Cc1ccc(-c2nnc(C)c(NCc3ccc(C)o3)n2)cc1 [Compound 24c, 6‐methyl‐N‐((5‐methylfuran‐2‐yl)methyl)‐3‐(p‐tolyl)‐1,2,4‐triazin‐5‐amine]
- % Growth (OD at 600 nm) ([1]; Fig 2F, bdf1-bd2Δ, 50 microM): 30% and 38% and 23%
- %Growth ([1]; Fig 3D, 50 µM, WT BDF1-flag, Exp 1-3): 54.5% and 57.2% and 54.2%
- EC50 ([1]; Nakaseomyces glabratus, read-out: EC50 (μM) growth inhibition, strain WT BDF1 (both BDs active)): 90 µM
- EC50 ([1]; Nakaseomyces glabratus, read-out: EC50 (μM) growth inhibition, strain bdf1-Y166F (active BD: BD2)): ~100 µM
- EC50 ([1]; Nakaseomyces glabratus, read-out: EC50 (μM) growth inhibition, strain bdf1-Y343F (active BD: BD1)): 36.6 ± 33 µM
- EC50 ([1]; Nakaseomyces glabratus, read-out: EC50 (μM) growth inhibition, strain bdf1-bd1Δ (active BD: BD2)): ~100 µM
- EC50 ([1]; Nakaseomyces glabratus, read-out: EC50 (μM) growth inhibition, strain bdf1-bd2Δ (active BD: BD1)): 22.7 ± 7.9 µM
- EC50 ([1]; Nakaseomyces glabratus, read-out: pEC50 (WT BDF1), Fig 2D (converted), WT C. glabrata, single experiments Exp1-3): 86.5 µM
- EC50 ([1]; Nakaseomyces glabratus, read-out: pEC50 growth inhibition, Fig 2C (converted), strain BD1 Y-F, single experiments Exp1-3): 107 µM
- EC50 ([1]; Nakaseomyces glabratus, read-out: pEC50 growth inhibition, Fig 2C (converted), strain BD2 Y-F, single experiments Exp1-3): 36.4 µM
- EC50 ([1]; read-out: EC50 (μM) growth inhibition, strain WT BDF1 (both BDs active)): 93 µM
- Normalized nanoBiT signal ([2]; 0.1953 (unit uncertain)): 107% and 92% and 96% and 99%
- Normalized nanoBiT signal ([2]; 0.3906 (unit uncertain)): 88% and 99% and 103%
- Normalized nanoBiT signal ([2]; 0.7813 (unit uncertain)): 86% and 104% and 98% and 103%
- Normalized nanoBiT signal ([2]; 1.5625 (unit uncertain)): 100% and 97% and 101%
- Normalized nanoBiT signal ([2]; 3.1250 (unit uncertain)): 93% and 97% (2×) and 103%
- Normalized nanoBiT signal ([2]; 50.0000 (unit uncertain)): 79% and 98% and 101% and 93%
- Normalized nanoBiT signal ([2]; 100.0000 (unit uncertain)): 95% and 97% and 100% and 88%
- inhibition of NanoBiT signal, Bmh1/Bmh2 ([2]; unrelated control pair): not observed
- remaining activity at 195.3 µM ([3]; Bdf1-SmBiT, Htz1-LgBiT, 0.1953 mM, Fig 4C, read-out: Normalized nanoBiT signal): 99%
- remaining activity at 390.6 µM ([3]; Bdf1-SmBiT, Htz1-LgBiT, 0.3906 mM, Fig 4C, read-out: Normalized nanoBiT signal): 98%
- remaining activity at 781.3 µM ([3]; Bdf1-SmBiT, Htz1-LgBiT, 0.7813 mM, Fig 4C, read-out: Normalized nanoBiT signal): 99%
- remaining activity at 3125 µM ([3]; Bdf1-SmBiT, Htz1-LgBiT, 3.1250 mM, Fig 4C, read-out: Normalized nanoBiT signal): 98%
- remaining activity ([3]; Bdf1-SmBiT, Htz1-LgBiT, […], Fig 4C, read-out: Normalized nanoBiT signal): 85%
- IC50 ([3]; mean and s.d., 4 independent experiments, read-out: IC50 (μM) (ScBdf1 / H2A.Z) NanoBiT signal): 65 µM
- activity at 0.002 µM ([4]; 4 h, Fig 2E, 0.002 microM, read-out: %HTRF Signal Cg Bdf1 BD1): 102%
- activity at 0.005 µM ([4]; 4 h, Fig 2E, 0.005 microM, read-out: %HTRF Signal Cg Bdf1 BD1): 97.9%
- activity at 0.013 µM ([4]; 4 h, Fig 2E, 0.013 microM, read-out: %HTRF Signal Cg Bdf1 BD1): 101%
- activity at 0.033 µM ([4]; 4 h, Fig 2E, 0.033 microM, read-out: %HTRF Signal Cg Bdf1 BD1): 96.4%
- activity at 0.082 µM ([4]; 4 h, Fig 2E, 0.082 microM, read-out: %HTRF Signal Cg Bdf1 BD1): 98%
- activity at 0.205 µM ([4]; 4 h, Fig 2E, 0.205 microM, read-out: %HTRF Signal Cg Bdf1 BD1): 97.5%
- activity at 0.512 µM ([4]; 4 h, Fig 2E, 0.512 microM, read-out: %HTRF Signal Cg Bdf1 BD1): 94.4%
- activity at 1.28 µM ([4]; 4 h, Fig 2E, 1.280 microM, read-out: %HTRF Signal Cg Bdf1 BD1): 88.7%
- activity at 3.2 µM ([4]; 4 h, Fig 2E, 3.200 microM, read-out: %HTRF Signal Cg Bdf1 BD1): 75%
- activity at 8 µM ([4]; 4 h, Fig 2E, 8.000 microM, read-out: %HTRF Signal Cg Bdf1 BD1): 48.9%
- activity at 20 µM ([4]; 4 h, Fig 2E, 20.000 microM, read-out: %HTRF Signal Cg Bdf1 BD1): 25.2%
- IC50 ([4]; Fig 2C original data, analogs of 24, single experiments Exp1-3, read-out: pIC50 CgBD1 (converted)): 8.28 µM and 7.31 µM and 9.27 µM
- %HTRF Signal Cg Bdf1 BD1 ([4]; Fig 2E, 0.002 microM): 102.33% and 103.65%
- %HTRF Signal Cg Bdf1 BD1 ([4]; Fig 2E, 0.005 microM): 104.91% and 102.28%
- %HTRF Signal Cg Bdf1 BD1 ([4]; Fig 2E, 0.013 microM): 100.44% and 101.24%
- %HTRF Signal Cg Bdf1 BD1 ([4]; Fig 2E, 0.033 microM): 102.26% and 102.17%
- %HTRF Signal Cg Bdf1 BD1 ([4]; Fig 2E, 0.082 microM): 100.01% and 99.64%
- %HTRF Signal Cg Bdf1 BD1 ([4]; Fig 2E, 0.205 microM): 100.01% and 98.57%
- %HTRF Signal Cg Bdf1 BD1 ([4]; Fig 2E, 0.512 microM): 94.98% and 94.31%
- %HTRF Signal Cg Bdf1 BD1 ([4]; Fig 2E, 1.280 microM, 1.28 µM): 89.76% and 89.41%
- %HTRF Signal Cg Bdf1 BD1 ([4]; Fig 2E, 3.200 microM, 3.2 µM): 77.27% and 82.10%
- %HTRF Signal Cg Bdf1 BD1 ([4]; Fig 2E, 8.000 microM): 45.31% and 53.86%
- %HTRF Signal Cg Bdf1 BD1 ([4]; Fig 2E, 20.000 microM): 17.43% and 18.98%
- IC50 ([4]; Fig 2E, mean and s.d., three independent experiments, read-out: IC50 (μM) CgBD1): 8.28 µM and 8 µM
- fold drop in CgBD1 inhibition ([4]; relative to 24, thiophenyl replaced by furyl or methylfuryl): 4 fold

— publication PMC11904993, “Humanized Candida and NanoBiT Assays Expedite Discovery of Bdf1 Bromodomain Inhibitors With Antifungal Potential” (Advanced Science, 2025)
